Source: a melting point compilation (Tetko et al.; mined from patent text by program, amines drawn as free bases though some values may be those of a salt)

First: CN1Cc2cscc2Nc2ccccc21
Second: COc1ccc2c(c1C=O)Nc1ccccc1S2
The melting point of the first is lower: 110 to 112 °C for the first, 155 to 160 °C for the second.

First: CC1CCCN1CCCN1CCN(C2CCN(Cc3ccccc3)CC2)C1=C(C#N)C#N (centres undefined)
Second: COC(=O)C(Cc1ccccc1)C(=O)N1CCC(C(=O)O)CC1 (centres undefined)
The melting point of the first is lower: 130 to 131 °C for the first, 138 °C for the second.

First: O=C(O)C(=O)c1ccc(OCc2ccc3ccccc3n2)cc1
Second: COC(=O)c1ccc(CSc2nc3ccccc3[nH]2)cc1
The melting point of the first is lower: 225 to 228 °C for the first, 229 to 231 °C for the second.

First: CC(C)=CCn1c(Cl)nc2c1c(=O)[nH]c(=O)n2C
Second: CC(C)(C)N1C(=O)C2Cc3[nH]cnc3CN2C1=O (centres undefined)
The melting point of the first is higher: 226 to 228 °C for the first, 156 to 158 °C for the second.

First: COc1cccc2c(Nc3ccccc3C)nc(N(C)C)nc12
Second: Cc1ccccc1Oc1cccc2c1OC(=O)C2(C)C
The melting point of the first is higher: 141 to 143 °C for the first, 115 to 117 °C for the second.

First: CC(C)S(=O)(=O)C1=CC=CN(Cl)C1
Second: CC(C)NC(=O)c1ccc(C(=O)N2CCN(c3ncccc3N)CC2)nc1
The melting point of the first is lower: 82 to 84 °C for the first, 142 to 143 °C for the second.

First: CCOC(=O)C1=C(C)NC(C)=C(C(=O)OCC)C1c1cccc(Cl)c1Cl
Second: CCOC(=O)C1=C(C)NC(C)=C(C(=O)OCC=CC=Cc2ccccc2)C1c1cccc([N+](=O)[O-])c1 (centres undefined)
The melting point of the first is lower: 125 to 126 °C for the first, 143 to 147 °C for the second.

First: CCCCCCCC(=O)Nc1cc(Cc2c(Cl)cccc2Cl)nc(Nc2ccc(C#N)cc2)n1
Second: CCCCCCc1ccc(C(=O)Cc2ccc(Br)cc2)cc1
The melting point of the first is higher: 135 to 137 °C for the first, 108 °C for the second.

First: COc1nccc2c1C(c1ccccc1C(F)(F)F)C(C(=O)OCCN(C)C)=C(C)N2 (centres undefined)
Second: Cc1cc(C)c(N2CCCc3c2nn(C)c3-c2ccccc2C(F)(F)F)c(C)c1
The melting point of the first is higher: 137 to 138 °C for the first, 59 to 63 °C for the second.

Compared with CSc1ccc(-c2c(C(F)(F)F)n(C)[nH]c2=O)cc1, O=C1N[C@H](Cc2ccc(C(F)(F)F)cc2)[C@H](c2ccc(F)cc2F)O1 (racemic) is higher in melting point: 142 to 146 °C for the first, 147 to 148 °C for the second.

Compared with CC1Oc2cc(CN3CCN(c4ccncc4)CC3)ccc2NC1=O (centres undefined), Cc1c(NC(=O)c2ccc(-c3ccc(C(F)(F)F)cc3)cc2)ccc2cc(CN3CCCC3)cnc12 is higher in melting point: 130 to 134 °C for the first, 220 to 222 °C for the second.

Compared with C=CCNCCC(=O)O, Nc1c(Br)cc(Br)c(CCC(=O)O)c1Br is higher in melting point: 194 to 195 °C for the first, 195 to 197 °C for the second.

First: CC(CN1C(=O)c2ccccc2C1=O)c1c[nH]c2ccc(C#N)cc12 (centres undefined)
Second: O=C1CN2Cc3ccccc3-c3cccc1c32
The melting point of the first is higher: 218 to 220 °C for the first, 199 to 202 °C for the second.

First: CCOCc1nc2c(N)nc3ccccc3c2n1CC(C)(C)N
Second: CCc1cc2c(NCc3ccccc3)ncnc2s1
The melting point of the first is higher: 161 to 162 °C for the first, 128 to 131 °C for the second.

First: O=[N+]([O-])c1ccccc1NCc1cc(Cl)cc(Cl)c1
Second: COc1cccc(-c2nc(Cl)nc(Nc3cccc([N+](=O)[O-])c3)n2)c1
The melting point of the first is lower: 138 to 140 °C for the first, 155 °C for the second.

First: ClCCCCCOc1ccccc1OCCCCCCl
Second: COCc1cc(C(O)CNCCCCCOCCc2ccc(F)cc2)ccc1O (centres undefined)
The melting point of the first is lower: 61 °C for the first, 86 to 87 °C for the second.

Compared with O=C(O)c1ccccc1-c1nc(-c2cc(C(F)(F)F)cc(C(F)(F)F)c2)no1, O=C(O)c1ccc(-c2csc(-c3ccncc3)n2)cc1 is higher in melting point: 178 to 182 °C for the first, greater than 300 °C for the second.

First: Clc1ccc2c(c1)C(c1ccccc1Cl)=NCc1cncnc1-2
Second: O=C1C(=Cn2ccnc2)C(c2ccc(Cl)cc2)c2ccc(Cl)cc21 (centres undefined)
The melting point of the first is lower: 120 to 121 °C for the first, 204 to 205 °C for the second.

First: COC(=O)[C@H](Cc1ccc(NC=O)cc1)NC(C)=O
Second: CC(C)N(C1CCCCC1)S(=O)(=O)N[C@@H](Cc1ccc(Oc2nccc3cnccc23)cc1)C(=O)O
The melting point of the first is lower: 126 °C for the first, 138 °C for the second.

Compared with COc1cc(N)c(Cl)cc1C(=O)N[C@H]1CCN(CCNC(=O)c2ccc(F)cc2)C[C@H]1OC (relative stereo), CNC(=O)c1ccccc1Nc1nc(Nc2ccc(OC)c3c2N(C)C(=O)CCC3)ncc1Cl is lower in melting point: 209 °C for the first, 165 to 167 °C for the second.

First: CC(=O)Oc1c(C)c(C)c2c(c1C)CCC(C)(CCBr)O2 (centres undefined)
Second: Cc1ccccc1C1c2cc(NC(=O)CC(C)(C)C)c(C)c(C)c2OC1(C)C (centres undefined)
The melting point of the first is lower: 102 to 103 °C for the first, 161 to 162 °C for the second.

Compared with O=C(O)COCCCCC1CCCN1c1cnc(-c2ccccc2)c(-c2ccccc2)n1 (centres undefined), O=C(O)C1=Cc2cc(OCc3ccccc3)c(OCc3ccccc3)cc2CC1 is higher in melting point: 138 to 140 °C for the first, 173 to 176 °C for the second.

Compared with CN1C(=O)[C@H](NC(=O)/C=C/c2cccc(Cl)c2)N=C(c2ccccc2)c2ccccc21, c1ccc(-c2nc3ccccc3n2-c2ccccc2)cc1 is lower in melting point: 229 to 231 °C for the first, 105 to 107 °C for the second.

First: Cc1ccc(S(=O)(=O)OCC2CCN(C(=O)c3cccc(C)c3)CC2)cc1
Second: O=S(=O)(CF)c1ccc(C2=C(c3ccc(F)cc3)CCC2)cc1
The melting point of the first is lower: 68 to 70 °C for the first, 123 to 124 °C for the second.

First: [O-][N+](=CC=Cc1ccccc1)c1ccccc1
Second: OCC(O)CNC(c1ccccc1)C(O)c1ccccc1 (centres undefined)
The melting point of the first is lower: 150 to 152 °C for the first, 161 to 163 °C for the second.

First: COC(=O)CCCC(=O)c1ccc(OC)c(CCC(=O)OC)n1
Second: CCCCCC(CC(=O)Nc1cc(C(=O)NC(=O)C(C)C)ccc1C(C)(C)C)c1ccc(OC)cc1OC (centres undefined)
The melting point of the first is lower: 64 to 66 °C for the first, 157 to 159 °C for the second.

First: COc1ccc2[nH]cc(CC(C)(C)[N+](=O)[O-])c2c1
Second: COc1ccc2nc(CBr)sc2c1
The melting point of the first is higher: 83 to 85 °C for the first, 78 to 81 °C for the second.

First: Cc1cc(C)c2c(c1)S(=O)(=O)NCN2
Second: CC1(C)CC(=O)Nc2cc3nc(O)[nH]c3cc21
The melting point of the first is lower: 160 to 165 °C for the first, greater than 300 °C for the second.

First: O=C1c2ccc(OC3CC3)cc2CCC1CN1CCC(O)(c2ccccc2)CC1 (centres undefined)
Second: CN1C(=O)CCC2(C)c3ccc(-c4ccccc4)cc3CCC12 (single isomer, unassigned; (+))
The melting point of the first is higher: 187 to 189 °C for the first, 155 °C for the second.

Compared with CCOC(=O)c1cc(OCc2ccccc2)cc(OCc2ccccc2)c1, COC(=O)c1cc(OCCOc2cccc3ccccc23)cc(OCCOc2cccc3ccccc23)c1 is higher in melting point: 63 to 65 °C for the first, 132 to 137 °C for the second.

Compared with Cc1cc(C)c(C2=C(OC(=O)C(C)(C)C)CC(CC3CCOC3)CC2=O)c(C)c1 (centres undefined), COc1cc(OC)nc(NCC2COC3(CCC(C(C)(C)C)CC3)O2)n1 (centres undefined) is lower in melting point: 108 to 110 °C for the first, 76 to 106 °C for the second.

Compared with COc1ccc2c(cccc2[C@H]2CO[C@H](CCCNC(=O)OCc3nccn3C(c3ccccc3)(c3ccccc3)c3ccccc3)OC2)c1, Cc1ccc(CCCO)c(NCc2ccc3nc(NCCCN4CCOCC4)n(Cc4cccc5cccnc45)c3c2)c1 is higher in melting point: 130 to 132 °C for the first, 165 °C for the second.

First: CC(=O)Oc1ccc2nc(C#N)nc(Cl)c2c1
Second: COC(=O)c1sc(Cl)nc1-c1ccccc1
The melting point of the first is higher: 145 to 147 °C for the first, 55 to 57 °C for the second.

First: COc1ccc2cc([C@H](C)C(=O)OCC(=O)COC(=O)Cc3ccc(CO[N+](=O)[O-])cc3)ccc2c1
Second: C=CCOc1ccc(C(=O)CC(C#N)(CCC)c2ccc(OC)cc2OC)cc1 (centres undefined)
The melting point of the first is higher: 92 to 95 °C for the first, 86.1 to 87.1 °C for the second.

N#Cc1cnc2sc(I)cc2c1Nc1cccc2cc[nH]c12 and O=C1CCC(N2C(=O)c3cccc(NC(=O)c4cccc(Cl)c4)c3C2=O)C(=O)N1 (centres undefined) cannot be ordered by melting point: greater than 245 °C for the first, 257 to 259 °C for the second.

First: NS(=O)(=O)c1ccc(-c2cc(F)c(F)cc2-c2ccc(F)cc2)cc1
Second: NS(=O)(=O)c1ccc(NC(=O)c2cc(F)ccc2SSc2ccc(F)cc2C(=O)Nc2ccc(S(N)(=O)=O)cc2)cc1
The melting point of the first is lower: 190 to 192 °C for the first, greater than 300 °C for the second.

First: CCN(c1nc(C)cc(C(O)c2cnccc2-c2ccccc2OC)n1)c1ccc(C(C)C)cc1Br (centres undefined)
Second: Cn1ncnc1COc1nn2c(-c3ccccc3F)nncc2c1-c1cccc(-c2cccnc2)c1
The melting point of the first is lower: 68 to 70 °C for the first, 157 to 163 °C for the second.

First: Cc1ccc(NC(=O)c2ccc(C[N+]3([O-])CC[N+](C)([O-])CC3)cc2)cc1Nc1nccc(-c2cccnc2)n1 (centres undefined)
Second: COc1cccc(-c2ccnc(Nc3cccc(OC(F)(F)C(F)F)c3)n2)c1
The melting point of the first is higher: 242 to 244 °C for the first, 103 to 104 °C for the second.

First: CC1CC(O)CC2=CCC3C4CCC(=O)C4(C)CCC3C21C (centres undefined)
Second: CN1C(=O)CC2(c3ccccc3)CCCC3OC32C1=O (centres undefined)
The melting point of the first is higher: 167 to 169 °C for the first, 135 to 140 °C for the second.

First: CC(CCl)NC(=O)c1c(Cl)cccc1[Si](C)(C)C (centres undefined)
Second: CCN(C)c1cccc(Cl)c1COc1cccn2c(Br)c(C)nc12
The melting point of the first is higher: 150 to 151 °C for the first, 124 to 126 °C for the second.

First: O=C(Nc1ccc(-n2nc(C3CC3)cc2C2CC2)c(F)c1)c1c(F)cccc1F
Second: COc1ccc(C(=O)Nc2cccc(C(=O)O)c2)c2c1OCCO2
The melting point of the first is lower: 182 to 186 °C for the first, 283 to 284 °C for the second.

First: CC(Oc1cc(-c2nn(C)c(OC(F)F)c2Cl)c(Cl)cc1Cl)C(=O)N(C)C (centres undefined)
Second: C#Cc1ccc2c(c1)C(c1ccccc1)=NC(C)c1c(C(=O)OCC)ncn1-2 (centres undefined)
The melting point of the first is lower: 149 °C for the first, 197 to 199 °C for the second.

First: CC(C)(C)OC(=O)Nc1cc(OCC2COC(=O)O2)c(C#Cc2ccccc2)cc1N (racemic)
Second: O=C(CC1=CC(O)CC1=O)Oc1ccc2ccccc2c1 (centres undefined)
The melting point of the first is higher: 140 °C for the first, 81 °C for the second.

First: CNC(=O)c1ccnc(NC(=O)N2CCC3(CC2)Cc2ccccc2C3)c1
Second: CC1(C)C(=O)N(c2ccnc(NC(=O)NCc3ccccn3)c2)c2cccnc21
The melting point of the first is higher: 229 to 231 °C for the first, 160 to 163 °C for the second.

First: CCOC(=O)CN(SN(C)C(=O)Oc1cccc2c1OC(C)(C)C2)C(=O)CC
Second: CN(C)c1ccc(CNC(=O)c2ccccc2O)cc1
The melting point of the first is lower: 108 to 109 °C for the first, 129 to 132 °C for the second.

First: COC(=O)/C=C/c1cc(Br)cs1
Second: CCCCCCCCOC(=O)C(=C1SCCCS1)c1cccc(C(F)(F)F)c1
The melting point of the first is higher: 63 to 67 °C for the first, 49 °C for the second.

First: OCc1cnoc1-c1ccc(F)c(Cl)c1
Second: CCOC(=O)c1ccc(-c2coc(-c3ccc(Cl)cc3)n2)cc1
The melting point of the first is lower: 106 to 107 °C for the first, 153 to 154 °C for the second.

O=C(Nc1ccccc1Cl)C1CN(C(=O)Nc2ccc(C(F)(F)F)cc2)N=C1c1ccc(Cl)cc1 (centres undefined) and CNc1nnc(-c2ccc3ncn(-c4ccc(SC)cc4)c3c2)o1 cannot be ordered by melting point: greater than 200 °C for the first, 224 to 225 °C for the second.

First: Cc1cccc(C)c1CNc1cc(C2=NCCN2C)cc2c1nc(C)n2C
Second: CC1Cc2cc3c(cc2C(C=Cc2cccc(Cl)c2)=NN1)OCO3 (centres undefined)
The melting point of the first is higher: 118 to 119 °C for the first, 114 to 117 °C for the second.

Compound O=C1N=NN=C2N=CN=C12 has a melting point of 230 to 234 °C.
